Results taken from ChEMBL document CHEMBL4321854, “Discovery of a First-in-Class Mitogen-Activated Protein Kinase Kinase 1/2 Degrader” (J Med Chem, 2019).
The source made the active and inactive calls. No cut-off for these calls is given here.

Columns and labels:
[1] = target: Protein cereblon/Dual specificity mitogen-activated protein kinase kinase 2 (Homo sapiens) (UniProt P36507+Q96SW2); assay: Protac activity against CRBN/MEK2 in human HT-29 cells harboring BRAF V600E variant assessed as degradation of MEK2 at 0.3 to 3 uM after 24 hrs by Western blot analysis; assay type: cell-based
[2] = target: Protein cereblon/Dual specificity mitogen-activated protein kinase kinase 1 (Homo sapiens) (UniProt Q02750+Q96SW2); assay: Protac activity against CRBN/MEK1 in human HT-29 cells harboring BRAF V600E variant assessed as degradation of MEK1 at 0.3 to 3 uM after 24 hrs by Western blot analysis; assay type: cell-based
[3] = target: Dual specificity mitogen-activated protein kinase kinase 2 (Homo sapiens, UniProt P36507); assay: Inhibition of recombinant full length human His-tagged MEK2 expressed in baculovirus expression system using ERK K52R dead variant as substrate preincubated for 20 mins followed by incubation with 33P-ATP for 2 hrs by hotspot kinase assay
SK-MEL-28 [4] = assay: Inhibition of colony formation in human SK-MEL-28 cells at 10 to 100 nM supplemented with fresh medium containing compound every 3 days for 14 days by crystal violet staining based assay; assay type: functional, cell-based
[5] = target: T1, von Hippel-Lindau disease tumor suppressor/Dual specificity mitogen-activated protein kinase kinase 2 (Homo sapiens) (UniProt P36507+P40337); assay: Protac activity against VHL/MEK2 in human HT-29 cells harboring with BRAF V600E variant assessed as degradation of MEK2 by measuring reduction in MEK2 protein level at 0.1 uM after 10 hrs by LC-MS based Volcano plot analysis; assay type: cell-based
SK-MEL-28 [6] = assay: Antiproliferative activity against human SK-MEL-28 cells assessed as reduction in cell growth after 3 days by MTT assay; assay type: functional
HT-29 [7] = assay: Antiproliferative activity against human HT-29 cells assessed as reduction in cell growth after 3 days by MTT assay; assay type: functional
HT-29 [8] = assay: Inhibition of colony formation in human HT-29 cells at 10 to 100 nM supplemented with fresh medium containing compound every 3 days for 14 days by crystal violet staining based assay; assay type: functional, cell-based
COLO 205 = assay: Antiproliferative activity against human COLO205 cells assessed as reduction in cell growth after 3 days by WST8 assay; assay type: functional
[9] = target: T1, von Hippel-Lindau disease tumor suppressor/Dual specificity mitogen-activated protein kinase kinase 2 (Homo sapiens); assay: Protac activity against VHL/MEK2 in human SK-MEL-28 cells harboring with BRAF V600E variant assessed as degradation of MEK2 by measuring MEK2 protein level up to 1 uM after 24 hrs by Western blot analysis; assay type: cell-based
[10] = target: T1, von Hippel-Lindau disease tumor suppressor/Dual specificity mitogen-activated protein kinase kinase 2 (Homo sapiens); assay: Protac activity against VHL/MEK2 in human HT-29 cells harboring with BRAF V600E variant assessed as degradation of MEK2 by measuring MEK2 protein level up to 1 uM after 24 hrs by Western blot analysis; assay type: cell-based
[11] = target: T2, von Hippel-Lindau disease tumor suppressor/Dual specificity mitogen-activated protein kinase kinase 1 (Homo sapiens) (UniProt Q02750+P40337); assay: Protac activity against VHL/MEK1 in human HT-29 cells harboring with BRAF V600E variant assessed as degradation of MEK1 by measuring reduction in MEK1 protein level at 0.1 uM after 10 hrs by LC-MS based Volcano plot analysis; assay type: cell-based
UACC-257 = assay: Antiproliferative activity against human UACC257 cells assessed as reduction in cell growth after 3 days by MTT assay; assay type: functional
[12] = target: Dual specificity mitogen-activated protein kinase kinase 1 (Homo sapiens, UniProt Q02750); assay: Inhibition of recombinant full length human His-tagged MEK1 expressed in baculovirus expression system using ERK K52R dead variant as substrate preincubated for 20 mins followed by incubation with 33P-ATP addition for 2 hrs by hotspot kinase assay
[13] = target: T1, von Hippel-Lindau disease tumor suppressor/Dual specificity mitogen-activated protein kinase kinase 2 (Homo sapiens); assay: Protac activity against VHL/MEK2 in human HT-29 cells harboring BRAF V600E variant assessed as degradation of MEK2 at 0.3 to 3 uM after 24 hrs by Western blot analysis; assay type: cell-based
[14] = target: T2, von Hippel-Lindau disease tumor suppressor/Dual specificity mitogen-activated protein kinase kinase 1 (Homo sapiens); assay: Protac activity against VHL/MEK1 in human HT-29 cells harboring BRAF V600E variant assessed as degradation of MEK1 at 0.3 to 3 uM after 24 hrs by Western blot analysis; assay type: cell-based

T2 sequence (P40337 whole entry, looked up): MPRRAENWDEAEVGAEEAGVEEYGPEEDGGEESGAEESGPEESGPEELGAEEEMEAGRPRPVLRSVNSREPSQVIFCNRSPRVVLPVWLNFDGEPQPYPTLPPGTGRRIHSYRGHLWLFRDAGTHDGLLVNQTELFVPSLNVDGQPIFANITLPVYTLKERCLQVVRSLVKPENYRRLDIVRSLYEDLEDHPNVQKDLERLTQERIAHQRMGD
T2 sequence (Q02750 whole entry, looked up): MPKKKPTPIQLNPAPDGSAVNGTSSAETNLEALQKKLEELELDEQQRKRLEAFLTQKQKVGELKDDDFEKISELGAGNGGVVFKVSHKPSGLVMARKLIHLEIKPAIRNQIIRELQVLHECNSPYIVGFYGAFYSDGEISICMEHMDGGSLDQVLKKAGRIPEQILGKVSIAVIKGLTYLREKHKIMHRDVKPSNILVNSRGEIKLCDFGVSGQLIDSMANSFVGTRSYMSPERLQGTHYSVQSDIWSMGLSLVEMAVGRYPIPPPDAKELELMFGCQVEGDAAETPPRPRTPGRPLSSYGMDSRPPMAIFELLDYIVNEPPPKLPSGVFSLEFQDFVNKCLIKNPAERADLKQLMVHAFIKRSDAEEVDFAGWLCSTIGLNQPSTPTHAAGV
T1 sequence (P36507 whole entry, looked up): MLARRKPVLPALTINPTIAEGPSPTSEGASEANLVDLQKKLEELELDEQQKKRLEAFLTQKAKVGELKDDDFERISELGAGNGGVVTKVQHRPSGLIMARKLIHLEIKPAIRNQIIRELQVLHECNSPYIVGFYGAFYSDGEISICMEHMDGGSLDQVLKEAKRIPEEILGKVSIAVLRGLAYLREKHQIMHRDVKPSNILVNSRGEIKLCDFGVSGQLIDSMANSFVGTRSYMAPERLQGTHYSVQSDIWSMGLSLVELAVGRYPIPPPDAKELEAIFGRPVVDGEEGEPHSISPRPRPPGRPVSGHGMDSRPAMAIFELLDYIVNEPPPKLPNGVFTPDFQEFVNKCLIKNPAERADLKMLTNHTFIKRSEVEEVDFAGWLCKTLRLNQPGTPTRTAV
T1 sequence (P40337 whole entry, looked up): as the sequence (P40337 whole entry, looked up) above
Protein cereblon/Dual specificity mitogen-activated protein kinase kinase 2 (Homo sapiens), sequence (P36507 whole entry, looked up): as the sequence (P36507 whole entry, looked up) above
Protein cereblon/Dual specificity mitogen-activated protein kinase kinase 2 (Homo sapiens), sequence (Q96SW2 whole entry, looked up): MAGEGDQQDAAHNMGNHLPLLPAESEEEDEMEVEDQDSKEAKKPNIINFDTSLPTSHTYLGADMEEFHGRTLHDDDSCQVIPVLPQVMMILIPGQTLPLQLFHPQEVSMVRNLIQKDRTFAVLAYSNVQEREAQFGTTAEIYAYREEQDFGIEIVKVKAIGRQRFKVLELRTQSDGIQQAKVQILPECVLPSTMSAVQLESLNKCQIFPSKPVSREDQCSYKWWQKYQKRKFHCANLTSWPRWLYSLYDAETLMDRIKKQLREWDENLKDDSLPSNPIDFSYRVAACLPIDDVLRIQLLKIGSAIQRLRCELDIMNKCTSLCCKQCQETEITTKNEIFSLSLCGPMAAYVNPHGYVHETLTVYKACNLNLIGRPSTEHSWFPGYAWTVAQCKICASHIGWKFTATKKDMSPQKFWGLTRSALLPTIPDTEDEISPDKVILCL
Protein cereblon/Dual specificity mitogen-activated protein kinase kinase 1 (Homo sapiens), sequence (Q02750 whole entry, looked up): as the sequence (Q02750 whole entry, looked up) above
Protein cereblon/Dual specificity mitogen-activated protein kinase kinase 1 (Homo sapiens), sequence (Q96SW2 whole entry, looked up): as the sequence (Q96SW2 whole entry, looked up) above
Dual specificity mitogen-activated protein kinase kinase 2, sequence (P36507 whole entry): as the sequence (P36507 whole entry, looked up) above
Dual specificity mitogen-activated protein kinase kinase 1, sequence (Q02750 whole entry): as the sequence (Q02750 whole entry, looked up) above

`O=C1CCC(N2C(=O)c3cccc(NCCNCCCONC(=O)c4ccc(F)c(F)c4Nc4ccc(I)cc4F)c3C2=O)C(=O)N1` (stereo not given) was tested, and the Activity [1] was “inactive” and the Activity [2] was “inactive”.
In the case of `Cc1ncsc1-c1ccc([C@H](C)NC(=O)[C@H]2C[C@H](O)CN2C(=O)[C@@H](NC(=O)CCCCCCCCCCNCCCONC(=O)c2ccc(F)c(F)c2Nc2ccc(I)cc2F)C(C)(C)C)cc1`, the IC50 [3] is reported as 1500 nM, the inhibition (SK-MEL-28 [4]) is reported as “inactive” and the Activity [5] is reported as “inactive”. For the same compound, the GI50 (SK-MEL-28 [6]) was “inactive”, the GI50 (HT-29 [7]) was “inactive” and the inhibition (HT-29 [8]) was “inactive”. For the same compound, the GI50 (COLO 205) was “inactive”, the Activity [9] was “inactive” and the Activity [10] was “inactive”. The Activity [11] was “inactive”, the GI50 (UACC-257) was “inactive” and the IC50 [12] was 1600 nM.
For `Cc1ncsc1-c1ccc(CNC(=O)[C@@H]2C[C@@H](O)CN2C(=O)[C@@H](NC(=O)CCCCCCCCCCNCCCONC(=O)c2ccc(F)c(F)c2Nc2ccc(I)cc2F)C(C)(C)C)cc1`, the Activity [13] was “Active” and the Activity [14] was “Active”.
For `O=C1CCC(N2C(=O)c3cccc(NCCOCCNCCCONC(=O)c4ccc(F)c(F)c4Nc4ccc(I)cc4F)c3C2=O)C(=O)N1` (stereo not given), the Activity [1] was “inactive” and the Activity [2] was “inactive”.
`Cc1ncsc1-c1ccc(CNC(=O)[C@@H]2C[C@@H](O)CN2C(=O)[C@@H](NC(=O)COCCOCCOCCNCCCONC(=O)c2ccc(F)c(F)c2Nc2ccc(I)cc2F)C(C)(C)C)cc1` was tested, and the Activity [13] was “Active” and the Activity [14] was “Active”.
For `O=C(NOC[C@H](O)CO)c1ccc(F)c(F)c1Nc1ccc(I)cc1F` [MIRDAMETINIB], the inhibition (SK-MEL-28 [4]) was “Active”, the GI50 (SK-MEL-28 [6]; SK-MEL-28, 72 h) was 2.9 nM and the GI50 (HT-29 [7]; HT-29, 72 h) was 3.1 nM. For the same compound, the inhibition (HT-29 [8]) was “Active”, the GI50 (COLO 205; COLO 205, 72 h) was 0.2 to 4.2 nM and the Activity [9] was “inactive”. For the same compound, the Activity [10] was “inactive” and the GI50 (UACC-257; UACC-257, 72 h) was 0.2 to 4.2 nM.
With `Cc1ncsc1-c1ccc(CNC(=O)[C@@H]2C[C@@H](O)CN2C(=O)[C@@H](NC(=O)CCCCCCNCCCONC(=O)c2ccc(F)c(F)c2Nc2ccc(I)cc2F)C(C)(C)C)cc1` the Activity [13] was “Active” and the Activity [14] was “Active”.
